From patent publication US20110318393A1, “Substituted Pyrazole Compounds” (MIIKANA THERAPEUTICS, INC., priority 2008, published 2011)

Key:
Assay type in all cases: biochemical
Conditions in all cases: 40 minutes, room temperature; less than or equal to 100 nM
[1] = biological target: T1, N-terminal His6-tagged recombinant human KDR, residues 790-end (Homo sapiens, UniProt P35968); assay: KDR kinase inhibition assay (33P-ATP filter assay)
T1 construct: recombinant human KDR, residues 790-end; His6 (N); purchased Upstate USA Inc, Charlottesville, Va
T1 sequence (P35968 790-1356 limits assumed): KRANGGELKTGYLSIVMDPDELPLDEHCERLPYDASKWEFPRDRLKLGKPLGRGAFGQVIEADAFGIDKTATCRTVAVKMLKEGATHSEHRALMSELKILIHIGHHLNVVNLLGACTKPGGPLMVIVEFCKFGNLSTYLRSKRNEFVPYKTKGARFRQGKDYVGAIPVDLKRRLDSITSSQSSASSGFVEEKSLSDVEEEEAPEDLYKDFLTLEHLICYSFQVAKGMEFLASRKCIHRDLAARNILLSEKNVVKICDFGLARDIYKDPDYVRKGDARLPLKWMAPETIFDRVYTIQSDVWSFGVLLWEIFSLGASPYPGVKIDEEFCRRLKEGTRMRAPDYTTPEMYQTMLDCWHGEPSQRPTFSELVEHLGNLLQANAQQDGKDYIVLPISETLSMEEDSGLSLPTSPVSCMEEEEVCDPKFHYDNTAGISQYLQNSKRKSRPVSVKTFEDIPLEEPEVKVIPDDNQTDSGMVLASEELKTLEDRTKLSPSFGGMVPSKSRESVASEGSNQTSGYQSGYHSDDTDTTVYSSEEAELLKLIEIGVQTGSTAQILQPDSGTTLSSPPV
Description: (§1) Compounds were assayed for KDR kinase inhibitory activity using N-terminal His6-tagged recombinant human KDR, residues 790-end (Upstate USA Inc, 706 Forest Street, Charlottesville, Va.). Serial dilutions of compound were assayed in a final reaction volume of 25 μL by incubating a solution of the above KDR kinase (5-10 mU), 8 mM MOPS (3-(N-morpholino)propanesulfonic acid) pH 7.0, 0.2 mM EDTA (ethylenediamine tetracetic acid), 0.33 mg/mL myelin basic protein (Upstate USA Inc, 706 Forest Street, Charlottesville, Va.), and 10 mM magnesium acetate and [γ-^33P-ATP] (specific activity of about 500 cpm/pmol, concentration as required). The reaction was initiated by the addition of the magnesium acetate and [γ-^33P-ATP] mixture. After incubation for 40 minutes at room temperature, the reaction was stopped by the addition of 5 μL of a 3% phosphoric acid solution. A 10 μL aliquote of the reaction was then spotted onto a P30 filtermat (PerkinElmer, Wellesley, Mass.) and washed three times for five minutes in 75 mM phosphoric acid and once in methanol prior to drying and scintillation counting. Inhibition of KDR activity was determined by comparison to assays that contained no inhibitor.

[2] = biological target: T2, N-terminal GST-tagged recombinant human Flt3, residues 564-end (Homo sapiens, UniProt P36888); assay: Flt3 kinase inhibition assay (33P-ATP filter assay)
T2 construct: recombinant human Flt3, residues 564-end; GST (N); purchased Upstate USA Inc, Charlottesville, Va
T2 sequence (P36888 564-993 limits assumed): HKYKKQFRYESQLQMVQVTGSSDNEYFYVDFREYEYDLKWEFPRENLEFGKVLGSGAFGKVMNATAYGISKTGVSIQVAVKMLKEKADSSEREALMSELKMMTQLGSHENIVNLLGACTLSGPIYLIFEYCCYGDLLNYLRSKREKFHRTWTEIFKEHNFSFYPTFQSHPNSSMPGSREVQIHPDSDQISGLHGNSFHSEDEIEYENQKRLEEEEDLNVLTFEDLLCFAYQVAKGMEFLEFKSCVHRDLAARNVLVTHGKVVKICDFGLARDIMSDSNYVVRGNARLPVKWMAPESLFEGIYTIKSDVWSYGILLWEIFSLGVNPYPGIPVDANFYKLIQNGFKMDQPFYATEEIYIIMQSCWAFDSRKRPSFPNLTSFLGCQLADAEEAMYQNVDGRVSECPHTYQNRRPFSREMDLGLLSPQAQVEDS
Description: as §1, with “Flt3” for “KDR”, “GST-tagged” for “His6-tagged”, “Flt3,” for “KDR,”, “564-end” for “790-end”, “50 μM amino acid sequence EAIYAAPFAKKK” for “0.33 mg/mL myelin basic protein”

[3] = biological target: T3, N-terminal His-tagged human Src (Homo sapiens, UniProt P12931); assay: Src kinase inhibition assay (33P-ATP filter assay)
T3 construct: His (N); purchased Upstate USA Inc, Charlottesville, Va
T3 sequence (P12931 whole entry): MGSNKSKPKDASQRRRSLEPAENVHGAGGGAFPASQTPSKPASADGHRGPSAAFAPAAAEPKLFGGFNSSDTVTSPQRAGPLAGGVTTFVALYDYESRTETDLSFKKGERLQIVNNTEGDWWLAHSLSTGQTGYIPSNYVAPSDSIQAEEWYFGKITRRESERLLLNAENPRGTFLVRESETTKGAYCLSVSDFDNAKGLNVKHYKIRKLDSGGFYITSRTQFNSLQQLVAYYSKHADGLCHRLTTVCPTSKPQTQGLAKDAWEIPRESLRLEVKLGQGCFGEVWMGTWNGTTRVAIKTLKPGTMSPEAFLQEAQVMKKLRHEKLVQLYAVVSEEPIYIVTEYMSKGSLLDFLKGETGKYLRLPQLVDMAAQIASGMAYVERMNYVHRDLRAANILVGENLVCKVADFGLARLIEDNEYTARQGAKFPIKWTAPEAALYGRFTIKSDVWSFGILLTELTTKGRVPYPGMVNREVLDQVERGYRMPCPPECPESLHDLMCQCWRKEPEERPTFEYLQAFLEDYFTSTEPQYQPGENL
Description: as §1, with “Src” for “KDR”, “His-tagged” for “His6-tagged recombinant”, “Src” for “KDR, residues 790-end”, “250 μM amino acid sequence KVEKIGEGTYGVVYK” for “0.33 mg/mL myelin basic protein”

Measured: IC50

Cc1cc(Nc2cc(N3CCC(N4CCCCC4)CC3)nc(/C=C/c3ccccc3)n2)n[nH]1 [Compound 5, (E)-6-(1,4′-bipiperidin-1′-yl)-N-(5-methyl-1H-pyrazol-3-yl)-2-styrylpyrimidin-4-amine]
≤ 100 nM: all assays above

Cc1cc(Nc2cc(N3CCN(c4ccncc4)CC3)nc(/C=C/c3ccccc3)n2)n[nH]1 [Compound 22, (E)-N-(5-methyl-1H-pyrazol-3-yl)-6-(4-(pyridin-4-yl)piperazin-1-yl)-2-styrylpyrimidin-4-amine]
≤ 100 nM: all assays above
